The subject of this test is Plasmodium falciparum. The test is described as follows: GSK_TCMDC: Inhibition of Plasmodium falciparum 3D7 in whole erythrocytes, using parasite LDH activity as an index of growth. It is filed as functional, organism-based. The following applies: Plasmodium falciparum, 3D7.
In turn, `O=[N+]([O-])c1ccc(/C=N/O)nc1` registered an XC50 of 872 nM.

`COc1cc(/C=N/Nc2nc(Nc3ccccc3)nc(Nc3ccccc3)n2)ccc1OCc1ccccc1[N+](=O)[O-]` showed an XC50 of 806 nM. As for `CCc1nc(N)nc(N)c1-c1ccc(C(C)(C)C)cc1`, the XC50 came to 235 nM. Regarding `COc1ccc(NC(=O)NC2CCN(c3ccnc4cc(Cl)ccc34)C2)cc1` (configuration not stated), the XC50 came out at 99.3 nM. Compound `CCCCCN1CCC(NS(=O)(=O)c2cccc(C(=O)Nc3ccc(Cl)cc3)c2)CC1` yielded an XC50 of 918 nM. `O=C(NC1CCC(N2CCN(c3cccc4[nH]ccc34)CC2)CC1)c1cc2cccnc2[nH]1` (configuration not stated) gave an XC50 of 492 nM. Consider `COc1ccc2nc3cc(Cl)ccc3c(NCCCO)c2c1`, for which the XC50 worked out at 783 nM.

With `Cc1ncc(CN2CCC(C(=O)Nc3ccc(-c4nc5ccccc5o4)cc3)CC2)s1`, the XC50 was determined as 393 nM.

In the case of `O=[N+]([O-])c1c(O)nc2c(c1O)CCC2`, the XC50 turned out to be 1050 nM. Compound `OCC1CCN(Cc2cccc(C#Cc3cc4ncnc(Nc5ccc(OCc6cccc(F)c6)c(Cl)c5)c4s3)n2)CC1` returned an XC50 of 552 nM. `O=C(Nc1ccc(Cl)cc1)c1ccc(CN2CCCN(Cc3cccc(Cl)c3)CC2)cc1` returned an XC50 of 826 nM. The result for `CC(C)(C)c1ccc(-c2nc3c(ccc4nc(N)nc(N)c43)[nH]2)cc1` reads 158 nM; that for `O=C(O)CCSc1ncnc2[nH]cnc12`, 129 nM. Take `CC(C)(C)SC1SC(SC(C)(C)C)C(OC(=O)c2ccccc2)C(OC(=O)c2ccccc2)C1OC(=O)c1ccccc1` (configuration not stated): the XC50 was determined as 937 nM. The result for `Oc1ccc(CCNc2nc(NCc3cccc(OCc4cccc(F)c4)c3)nc(N3CCNCC3)n2)cc1` reads 1340 nM.

As to `O=C(/C=C/c1cccc(Br)c1)NCCCCCN1CCC(c2c[nH]c3ccccc23)CC1`, the XC50 worked out at 634 nM. `CCN1CCN(c2cc(C)c3cc(NC(=O)c4ccc(Br)o4)ccc3n2)CC1` registered an XC50 of 755 nM. In turn, `Cc1cccc2nc(-c3ccc(-c4ccc(NC(=O)Nc5ccc(Cl)cc5)cc4)s3)[nH]c12` registered an XC50 of 152 nM. Then `O=S(=O)(Nc1cccc(CCN2CCC(N3CCCCC3)CC2)c1)c1cccc(C(F)(F)F)c1`, with 976 nM; and `COc1ccc(CCNC(=O)c2ccccc2O)cc1-c1ccc(C(C)(C)C)cc1`, with 563 nM.

Compound `CC(C)CCN(Cc1cncn1Cc1cccc(C(F)(F)F)c1)C(=O)c1cncc(-c2ccccc2)c1` showed an XC50 of 774 nM. Compound `CCNc1cc(C(=O)N[C@@H](Cc2ccccc2)[C@H](O)CNCc2cc(OC)cc(OC)c2)cc(N2CCCC2=O)c1` displayed an XC50 of 736 nM.

`Cc1ccc(-n2cc(CNCCCn3ccnc3)c(-c3cccc(C)c3)n2)cc1` had an XC50 of 773 nM. `CN(c1cc(NC(=O)c2ccc(F)cc2)ccn1)C1CCN(Cc2cccc(F)c2)CC1` returned an XC50 of 495 nM.

`CC(C)[C@@H](NC(=O)NC1CCC(CCN2C3CCC2CC(OC(=O)C(CO)c2ccccc2)C3)CC1)C(O)(c1ccccc1)c1ccccc1` (some centres not stated) displayed an XC50 of 812 nM. Turning to `Cc1c(C(=O)NC2CCC(CN3CCC(c4c[nH]c5ccccc45)CC3)CC2)cnn1-c1c(Cl)cc(Cl)cc1Cl` (configuration not stated), the XC50 is 711 nM. On to `O=C(/C=C/c1ccc(Cl)c(Cl)c1)NCCCCCCN1CCN(C(=O)Nc2cccc(Cl)c2)CC1`, for which the XC50 is 981 nM. `O=C(NCC(NCCCNc1cc(=O)c2ccccc2[nH]1)c1cc(Br)cc(Br)c1)C1=CCCC1` (configuration not stated) had an XC50 of 901 nM.

`O=S(=O)(Nc1cccc(CCN2CCC(N3CCCCC3)CC2)c1)c1ccc2c(c1)OCCO2` gave an XC50 of 1230 nM.

Turning to `Cc1cc(NC(=O)c2cc(Br)ccc2Cl)n(-c2nc(C)c(C)c(=O)[nH]2)n1`, the XC50 is 1130 nM.

For `COc1ccc2nccc([C@@H](O)CN3CCC(NCCOc4ccccc4C(F)(F)F)CC3)c2c1`, the XC50 stood at 753 nM.

In turn, `COc1cc(NC(=O)/C=C/c2ccccc2OC(F)(F)F)cc(OCCN2CCCCC2)c1` yielded an XC50 of 190 nM. Then `Clc1ccccc1CCNCC1CCN(CC2CCCCC2)CC1`, with 692 nM; and `CN(C)c1cccc2c1nc(-c1ccco1)n2CC1CCCN1` (configuration not stated), with 970 nM; and `Nc1ccc(-c2cnc3[nH]cc(-c4ccc(C(=O)O)cc4)c3c2)cn1`, with 964 nM.

Consider `CCOC(=O)CC[C@H](NC(=O)c1ccc(NS(=O)(=O)c2ccc(-c3cnc(N)[nH]c3=O)cc2)cc1)C(=O)OCC`, for which the XC50 was 174 nM. Then `COc1ccc(C(C(=O)NC2CCN(C[C@H](O)c3ccnc4ccc(OC)cc34)CC2)N2CCN(c3ccc(Cl)c(Cl)c3)CC2)cc1` (some centres not stated), with 204 nM; and `O=C(NCCCCCN1CCC(c2c[nH]c3ccccc23)CC1)Nc1ccc(I)cc1`, with 991 nM. For `NC(=O)C1CCN(Cc2cccc(-c3ccc(-c4nc5cc(C(F)(F)F)ccc5[nH]4)cc3)c2)CC1`, the XC50 came out at 610 nM. `S=C(NCC1CCCCC1)NC1CCC(CN2CCC(c3c[nH]c4ccccc34)CC2)CC1` (configuration not stated) had an XC50 of 1110 nM. The result for `CC(C)C1C(O)=C(c2ccc3ccccc3c2)C(=O)N1CC1CCCCC1` (configuration not stated) reads 1130 nM.

`O=C1NC(c2ccc(N3CCCCCC3)cc2)Nc2ccccc21` (configuration not stated) came in with an XC50 of 566 nM. The result for `CCCCCN1CCCC(NS(=O)(=O)c2cccc(C(=O)Nc3cccc(C(F)(F)F)c3)c2)C1` (configuration not stated) reads 1070 nM. Compound `CCNc1cc(C)nc(Nc2ccc(NC(=O)c3ccccc3)cc2)n1` came in with an XC50 of 1020 nM. Compound `COc1ccc(Nc2nc(NC3CCN(Cc4ccccc4)CC3)cc(-c3ccncc3)n2)cc1` gave an XC50 of 992 nM. Then `COc1ccccc1/C=C/C(=O)N(C)C1CCN(CCCCCNC(=O)/C=C/c2ccc(Cl)c(Cl)c2)C1` (configuration not stated), with 867 nM; and `CCCCc1ccc(S(=O)(=O)Nc2ccc3c(c2)CCN(Cc2c[nH]c4cnccc24)CC3)cc1`, with 674 nM; and `CN1CCN(S(=O)(=O)c2cccc(Nc3nccc(N(C)c4ccc5c(c4)nc(NC(=O)c4cccs4)n5C)n3)c2)CC1`, with 746 nM. `CCC(C)(C)c1ccc(N2C(N)=NC(N)=NC2(C)C)cc1` came in with an XC50 of 11.8 nM. Then `O=C(c1cccs1)N1N=C(c2cccs2)CC1c1cccc([N+](=O)[O-])c1` (configuration not stated), with 820 nM; and `COC1CCC(C(=O)Nc2ccc(-c3cccc(-c4nc5cc(C(F)(F)F)ccc5[nH]4)c3)cc2)CC1` (configuration not stated), with 547 nM; and `N#Cc1cncc(-c2nc3c(N4CCN(c5cnccn5)CC4)cccc3n2CCNCc2ccccc2)c1`, with 912 nM. `CCOc1ccc2[nH]c(C)cc(=NN=Cc3cccc(F)c3)c2c1`: the XC50 is 736 nM. In the case of `O=C(Nc1cccc(-c2ccc(-c3nc4ccccc4[nH]3)cc2)c1)c1ccncc1`, the XC50 came out at 529 nM. In turn, `CC(CNC(=O)[C@H]1CNCCN1C(=O)CCCc1ccccc1)c1ccccc1` (some centres not stated) gave an XC50 of 915 nM.

The compound `CCC(C)NS(=O)(=O)c1ccc2nc(Nc3ccc(C)c(Cl)c3)n(C3CCCCC3)c2c1` (configuration not stated) registered an XC50 of 511 nM. `O=C(CCN1C(=O)c2ccccc2C1=O)N1CCN(CC=Cc2ccccc2)CC1` yielded an XC50 of 541 nM. The result for `CCCCC(CC)CN1C(=O)C(c2ccccc2)(c2ccccc2)N=C1N` (configuration not stated) reads 189 nM. The compound `CO[C@@H]1C[C@@H](C(=O)Nc2ccccc2)N(c2ccc(C#N)c3ccccc23)C1` yielded an XC50 of 907 nM. The result for `CC(C)NCc1cccc(-c2ccc(NS(=O)(=O)c3cccc4cccnc34)cc2)c1` reads 1080 nM; that for `O=C(NCCCCCN1CCC(c2c[nH]c3ccccc23)CC1)Nc1cccc(C(F)(F)F)c1`, 1000 nM; that for `CN=C(NC)c1cccc(NC(=O)C=Cc2ccc(C=CC(=O)Nc3cccc(C(=NC)NC)c3)cc2)c1`, 164 nM.
